Numbering of substitutions follows the chain as printed. “Also recorded” adds a separate entry of the source.
Legend:
[1] = tested on: prostate glands of mice; test: Prostate weight in treated male mice; format: in vivo; settings: 5 times per week for four weeks, BiC 100 mg/kg PO, PP 1 mg/kg IP, or the combination
Procedure: FIG. 7. […] As a positive control, nine mice were treated with castration for four weeks. Prostate glands were harvested and wet weights determined. […] Error bars represent the standard error of the mean (S.E.M.).
Animals were treated 5 times per week for four weeks. At the end of the study period, animals were sacrificed and prostate tissue weighed. After weighing, the tissue was divided in half for pathological and genetic studies. […] (FIG. 7).

[2] = tested on: endogenous AR-regulated gene expression, LAPC4 cells; test: qRT-PCR of androgen-responsive genes in LAPC4 cells; format: cell-based, human; settings: No DHT = 1, 3 nM DHT alone or with 1 uM BIC, 100 nM PP or 100 nM HH
Procedure: (§1) LAPC4 and LNCaP cells were grown in the presence or absence of 3 nM DHT in charcoal-stripped media, with or without the inhibitors. RNA was harvested using an RNAeasy kit (Qiagen) and reverse transcribed (MMLV-RT, Invitrogen). Real-time PCR was carried out on a 7300 Real Time PCR System (Applied Biosystems) using SYBR green as the detecting dye and Rox as the reference dye. The androgen responsive genes kalikrein 3, or PSA (KLK3) [Cleutjens, K. B., et al., Two androgen response regions cooperate in steroid hormone regulated activity of the prostate-specific antigen promoter. J Biol Chem, 1996. 271(11): p. 6379-88; Nelson, P. S., et al., The program of androgen-responsive genes in neoplastic prostate epithelium. Proc Natl Acad Sci USA, 2002. 99(18): p. 11890-5), metalloproteinase 16 (MMP16) (Nelson, P. S., et al., The program of androgen-responsive genes in neoplastic prostate epithelium. Proc Natl Acad Sci USA, 2002. 99(18): p. 11890-5), transmembrane protease serine 2 (TMPRSS2) (Nelson, P. S., et al., The program of androgen-responsive genes in neoplastic prostate epithelium. Proc Natl Acad Sci USA, 2002. 99(18): p. 11890-5; […] Vaarala, M. H., et al., Expression of transmembrane serine protease TMPRSS2 in mouse and human tissues. J Pathol, 2001. 193(1): p. 134-40), FK506-binding immunophilin 51 (FKBP51) (Nelson, P. S., et al., The program of androgen-responsive genes in neoplastic prostate epithelium. Proc Natl Acad Sci USA, 2002. 99(18): p. 11890-5; Amler, L. C., et al., Dysregulated expression of androgen-responsive and nonresponsive genes in the androgen-independent prostate cancer xenograft model CWR22-R1. Cancer Res, 2000. 60(21): p. 6134-41; Velasco, A. M., et al., Identification and validation of novel androgen-regulated genes in prostate cancer. Endocrinology, 2004. 145(8): p. 3913-24; Magee, J. A., et al., Direct, androgen receptor-mediated regulation of the FKBP5 gene via a distal enhancer element. Endocrinology, 2006. 147(1): p. 590-8), G-protein coupled receptor RDC1 homolog, or chemokine orphan receptor 1 (RDC-1) (Nelson, P. S., et al., The program of androgen-responsive genes in neoplastic prostate epithelium. Proc Natl Acad Sci USA, 2002. 99(18): p. 11890-5), NK homeobox family member 3 (Nk×3.1) (Nelson, P. S., et al., The program of androgen-responsive genes in neoplastic prostate epithelium. Proc Natl Acad Sci USA, 2002. 99(18): p. 11890-5; Bieberich, C. J., et al., Prostate-specific and androgen-dependent expression of a novel homeobox gene. J Biol Chem, 1996. 271(50): p. 31779-82; […]) were all normalized to the transcription of the housekeeping ribosomal gene (RPL19). All samples were done in triplicate and separately normalized.

[3] = tested on: endogenous AR-regulated gene expression, LNCaP cells; test: qRT-PCR of androgen-responsive genes in LNCaP cells; format: cell-based, human; settings: No DHT = 1, 3 nM DHT alone or with 1 uM BIC, 100 nM PP or 100 nM HH
Procedure: as §1

[4] = target: T1, endogenous wild-type AR, LAPC4 cells (Homo sapiens, UniProt P10275); test: PSA-luciferase reporter assay in LAPC4 cells with DHT; format: cell-based; settings: 3 nM DHT
T1 construct: that each express endogenous AR; endogenous in cells; host or cells: LAPC4
T1 sequence (P10275 1-920): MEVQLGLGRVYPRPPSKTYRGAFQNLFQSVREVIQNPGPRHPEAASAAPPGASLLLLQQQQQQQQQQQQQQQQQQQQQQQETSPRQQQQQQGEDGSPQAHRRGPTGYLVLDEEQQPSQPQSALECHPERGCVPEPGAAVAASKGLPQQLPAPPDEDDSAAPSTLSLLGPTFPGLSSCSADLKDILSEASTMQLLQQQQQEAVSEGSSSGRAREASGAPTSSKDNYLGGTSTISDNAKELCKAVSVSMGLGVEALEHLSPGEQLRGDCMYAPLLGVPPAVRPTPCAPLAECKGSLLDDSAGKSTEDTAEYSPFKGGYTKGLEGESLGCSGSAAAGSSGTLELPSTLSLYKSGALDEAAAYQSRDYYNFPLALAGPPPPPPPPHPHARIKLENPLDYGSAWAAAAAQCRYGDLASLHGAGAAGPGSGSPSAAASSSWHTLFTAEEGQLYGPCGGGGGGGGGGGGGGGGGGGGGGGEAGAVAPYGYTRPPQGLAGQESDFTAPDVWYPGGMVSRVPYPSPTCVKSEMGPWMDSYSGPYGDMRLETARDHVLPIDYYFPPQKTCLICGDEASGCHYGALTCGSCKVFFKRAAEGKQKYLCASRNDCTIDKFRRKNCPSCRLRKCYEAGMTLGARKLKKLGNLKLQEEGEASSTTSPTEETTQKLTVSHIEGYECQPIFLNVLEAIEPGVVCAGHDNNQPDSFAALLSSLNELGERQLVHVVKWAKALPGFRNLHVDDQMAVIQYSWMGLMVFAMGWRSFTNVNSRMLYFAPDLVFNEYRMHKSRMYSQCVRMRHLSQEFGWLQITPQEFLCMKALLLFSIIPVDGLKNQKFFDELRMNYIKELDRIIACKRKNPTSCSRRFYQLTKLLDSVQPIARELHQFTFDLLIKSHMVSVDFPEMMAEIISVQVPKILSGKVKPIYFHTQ
Procedure: (§2) Cells were transfected with two reporter plasmids, a PSA-luciferase construct (androgen responsive), and an SV40-renilla luciferase construct as an internal control. The following day, the cells were split and drugs added in the presence of 3 nM DHT. Luciferase production was measured the following day (Dual luciferase assay kit, Promega).
(§3) Synergism can be defined as a combination index of less than one, using the non-exclusive assumption described by Chou et al. (Chou, T. C. and P. Talalay, Quantitative analysis of dose-effect relationships: the combined effects of multiple drugs or enzyme inhibitors. Adv Enzyme Regul, 1984. 22: p. 27-55).

[5] = target: T2, endogenous AR with a mutation (T877A), LNCaP cells (Homo sapiens, UniProt P10275, T878A); test: PSA-luciferase reporter assay in LNCaP cells with DHT; format: cell-based; settings: for IC50: LNCaP cells, 3 nM DHT
T2 construct: that each express endogenous AR; endogenous in cells; host or cells: LNCaP
T2 sequence (P10275 1-920 T878A): T1 sequence (P10275 1-920) with T878A
Procedure: as §2, §3

[6] = tested on: LN-AR cells; test: Cell proliferation (DNA content, DAPI), LN-AR; format: cell-based, human; settings: seven days, PP 100 nM, HH 100 nM, BiC 1 μM
Description: (§4) LN-AR cells were created by retroviral infection of a high-expressing AR vector into LNCaP cells, and proliferate independent of androgen in cell culture, unlike their parental line (Chen, C. D., et al., Molecular determinants of resistance to antiandrogen therapy. Nat Med, 2004. 10(1): p. 33-9). HEK293 cells were used as a control. Cells were transferred to charcoal-stripped media two days before they were split and plated in quadruplicate at a density of approximately 20,000 cells/well in 48-well plates. […] Media were changed every day, using a single preparation to ensure consistent compound concentrations. Proliferation was determined by measuring the DNA content of the cells in each well. Each day, the cells in four wells were fixed in 100% cold methanol, followed by staining for 5 min at RT with 0.2 ng/mL 4′,6-diamidino-2-phenylindole (DAPI) in PBS. The cells were washed once in PBS, then read on a fluorescence plate reader using 365/439 excitation/emission wavelengths. LAPC4 and LNCaP cells proliferated to a much greater degree in the presence of DHT, while LN-AR cells proliferated in the presence and absence of DHT.

[7] = tested on: LAPC4 cells; test: Cell proliferation (DNA content, DAPI), LAPC4; format: cell-based, human; settings: LAPC4, 3 nM DHT, seven days; PP 100 nM, HH 100 nM, BiC 1 μM
Description: as §4

[8] = tested on: HEK293 cells; test: Cell proliferation (DNA content, DAPI), HEK293 control; format: cell-based; settings: HEK293, seven days; PP 100 nM, HH 100 nM, BiC 1 μM
Description: as §4

[9] = tested on: LNCaP cells; test: Cell proliferation (DNA content, DAPI), LNCaP; format: cell-based, human; settings: 3 nM DHT, seven days, PP 100 nM, HH 100 nM, BiC 1 μM
Description: as §4

CC(O)(CS(=O)(=O)c1ccc(F)cc1)C(=O)Nc1ccc(C#N)c(C(F)(F)F)c1 (stereo not drawn) [BiC, bicalutamide]
Reduction of prostate weight [1]: 35%

C[C@]12CCC(=O)C[C@@H]1CC[C@@H]1[C@@H]2CC[C@]2(C)[C@@H](O)CC[C@@H]12 [DHT, dihydrotestosterone]
FKBP51 transcription (normalized to RPL19) [2]: 21.4
KLK3 transcription (normalized to RPL19) [2]: 1.97
MMP16 transcription (normalized to RPL19), androgen-repressed gene [2]: 0.71
Nkx3.1 transcription (normalized to RPL19) [2]: 1.08
RDC1 transcription (normalized to RPL19), androgen-repressed gene [2]: 0.63
TMPRSS2 transcription (normalized to RPL19) [2]: 1.13
FKBP51 transcription (normalized to RPL19) [3]: 2.15
KLK3 transcription (normalized to RPL19) [3]: 1.89
MMP16 transcription (normalized to RPL19), androgen-repressed gene [3]: 0.61
Nkx3.1 transcription (normalized to RPL19) [3]: 2.00
RDC1 transcription (normalized to RPL19), androgen-repressed gene [3]: 0.66
TMPRSS2 transcription (normalized to RPL19) [3]: 3.70

O=c1ccc2cc(O[C@@H]3O[C@H](CO)[C@@H](O)[C@H](O)[C@H]3O)c(O)cc2o1 [Esculin]
IC50 [4]: 831 nM
IC50 [5]: 62200 nM

COc1ccc2c3c([nH]c2c1)C(C)=NCC3 [Harmaline]
IC50 [5]: 1190 nM

COc1ccc2c(c1)[nH]c1c(C)nccc12 [Harmine]
IC50 [4]: 80 nM
IC50 [5]: 1560 nM

CC(C)(O)C(=O)Nc1ccc([N+](=O)[O-])c(C(F)(F)F)c1 [OH-F, hydroxy-flutamide, reference compound]
Mode of antagonism: effect on DHT dose-response of PSA-luciferase ([5]; LNCaP, DHT titrated, moderate dose of each inhibitor): DHT overcame the inhibitory effect; also recorded: consistent with a competitive antagonist

Cc1cc(/C=C/c2ccc3cc(N(C)C)ccc3[n+]2C)c(C)n1-c1ccccc1 [PP, pyrvinium pamoate]
Reduction of prostate weight [1]: did not produce a statistically significant effect; also recorded: did not significantly reduce prostate size
Inhibition of androgen-independent cell growth [6]: able to inhibit the growth of all four cell lines; also recorded: blocked growth
Inhibition of cell growth [7]: able to inhibit the growth of all four cell lines
Non-specific growth inhibition of control cells [8]: Neither compound exhibited non-specific growth inhibition
Inhibition of cell growth [9]: able to inhibit the growth of all four cell lines; also recorded: exhibited growth-inhibitory properties

COc1cc2ccc(=O)oc2cc1O [Scopoletin]
IC50 [4]: 1380 nM
IC50 [5]: 604000 nM

Harman
IC50 [5]: 380 nM

From US8119660B2, “Small-molecule inhibitors of the androgen receptor” (The Regents of the University of California, priority 2007, dated 2012)
